In patent US5591728A, “New phosphonic acid compounds” (Adir Et Compagnie, priority 1993, dated 1997):
Structures can show the parent of a compound that is named as a salt.

How the values were obtained:
[1] = system: pressor responses obtained with big ET-1; assay: In vitro study on perfused isolated rat kidney: pressor response to big ET-1; parameters: species or system male Wistar rats; settings: big ET-1 0.4 nmol bolus
Method: The studies are performed on kidneys prepared from male Wistar rats (300400 g). The rats are anesthetized with pentobarbitone sodium (50 mg/kg i.p.) and the left kidney is prepared so as to permit perfusion with Tyrode solution. The variations in perfusion pressure are measured continuously. The perfusion flow rate is 6 ml/min. After stabilization, a bolus injection of ET- 1 (0.03 nmol) or of big ET-1 (0.4 nmol) is performed and the pressor response is recorded. […] The IC50 values of the products are calculated and the results are given in μM.

[2] = system: big ET-1-induced pressor responses (inhibition of ECE); assay: In vivo study on pithed rats: big ET-1-induced pressor response; parameters: species or system Sprague-Dawley rats; settings: for IC50 with respect to big ET-1: big ET-1 1 nmol/kg injection, product given by infusion
Description: (§1) Sprague-Dawley rats (300400 g) are anesthetized with ether. The animals are then pithed and placed under artificial respiration. The vagus nerves are sectioned and the carotid arteries ligated. A catheter is introduced into one of the carotid arteries to measure arterial blood pressure. A second catheter is introduced into the vein of the penis to enable substances to be injected.
After a stabilization period, the animals receive an injection of endothelin-1 (ET-1; 0.5 nmol/kg) or its precursor, big endothelin-1 (big ET-1; 1 nmol/kg).

[3] = system: ET-1-induced hypertension; assay: In vivo study on pithed rats: ET-1-induced hypertension; parameters: species or system Sprague-Dawley rats; settings: ET-1 0.5 nmol/kg
Description: as §1
After a stabilization period, the animals receive an injection of endothelin-1 (ET-1; 0.5 nmol/kg) or its precursor, big endothelin-1 (big ET-1; 1 nmol/kg). The pressor responses are recorded and, after the pressure has returned to its initial value (1 h 30 min to 2 hours), a second injection of ET-1 or of big ET-1 is given in the presence or absence of an infusion of a product of the invention or of the reference substance, phosphoramidon. Phosphoramidon and the products of the invention had no effect on ET-1-induced hypertension.

Molecule | IC50 [1] [µM] | IC50 with respect to big ET-1 [2] [µg/kg/min] | inhibition of pressor responses obtained with big ET-1 ([1]; in words) | inhibition of big ET-1-induced pressor responses ([2]; big ET-1 1 nmol/kg, in words) | effect on ET-1-induced hypertension [3]
CC(C)C[C@H](NP(=O)(O)OCC(O)CO)C(=O)N[C@@H](Cc1c[nH]c2ccccc12)C(=O)O (stereo partly drawn) [Example 1, N-[(2,3-Dihydroxypropoxy)hydroxyphosphinyl]-(S)Leu-(S) Trp-OH disodium salt] | 4 | 100 | – | – | –
CCOC(=O)[C@H](Cc1c[nH]c2ccccc12)NC(=O)[C@H](CC(C)C)NP(=O)(O)OCCO [Example 3, N-[(2-Hydroxyethoxy)hydroxyphosphinyl]-(S)Leu-(S)Trp-OEt disodium salt] | 5 | 280 | – | – | –
CC(C)C[C@H](NP(=O)(O)OCCO)C(=O)N[C@@H](Cc1c[nH]c2ccccc12)C(=O)O [Example 4, N-[(2-Hydroxyethoxy)hydroxyphosphinyl]-(S)Leu-(S)Trp-OH disodium salt] | 7 | 430 | – | – | –
CC(C)C[C@H](NP(=O)(O)OC(CO)CO)C(=O)N[C@@H](Cc1c[nH]c2ccccc12)C(=O)O [Example 8, N-{[(1-Hydroxymethyl-2-hydroxy)ethoxy]hydroxyphosphinyl]-(S)Leu-(S) Trp-OH dilithium salt] | – | 480 | – | – | –
CCOC(=O)[C@H](Cc1c[nH]c2ccccc12)NC(=O)[C@H](CC(C)C)NP(=O)(O)OCCCN [Example 9, N-[(3-Aminopropoxy)hydroxyphosphinyl]-(S)Leu-(S)Trp-OEt lithium salt] | – | 200 | – | – | –
CC(C)C[C@H](NP(=O)(O)OCCC(O)CO)C(=O)N[C@@H](Cc1c[nH]c2ccccc12)C(=O)O (stereo partly drawn) [Example 12, N-[(3,4-Dihydroxybutoxy)hydroxyphosphinyl]-(S)Leu-(S) Trp-OH dilithium salt] | – | 140 | – | – | –
CC(C)C[C@H](NP(=O)(O)O[C@@H]1O[C@@H](C)[C@H](O)[C@@H](O)[C@H]1O)C(=O)N[C@@H](Cc1c[nH]c2ccccc12)C(=O)[O-].CC(C)C[C@H](NP(=O)(O)O[C@@H]1O[C@@H](C)[C@H](O)[C@@H](O)[C@H]1O)C(=O)N[C@@H](Cc1c[nH]c2ccccc12)C(=O)[O-].[Na+].[Na+] [Phosphoramidon, N-[α-(S)-(rhamnopyranosyloxy) hydroxyphosphinyl]-(S)leu-(S) Trp-OH disodium salt, reference compound] | 0.9 | 125 | substantially inhibited | inhibited big ET-1-induced pressor responses in a dose-dependent manner | no effect
N-[((R)-2,3-Dihydroxypropoxy)hydroxyphosphinyl]-(S)Leu-(S)Trp-OH dilithium salt [Example 10] | – | 230 | – | – | –
N-[((S)-2,3-Dihydroxypropoxy)hydroxyphosphinyl]-(S)Leu-(S)Trp-OH dilithium salt [Example 11] | – | 100 | – | – | –
